Results from ChEMBL document CHEMBL6078695, “Design, synthesis, and biological evaluations of 5-aryl-pyrazole-3-carboxamide derivatives as selective CB2 receptor agonists for the treatment of colitis” (Eur J Med Chem, 2025).
Calls of active or inactive are those of the source. The calls are words filed in the database; no cut-off is given here.

Columns and labels:
Format in all cases: functional, cell-based
Cannabinoid receptor 2 [1] = target: T1, Cannabinoid receptor 2 (Homo sapiens, UniProt P34972); assay: Antagonist activity at human CB2 receptor expressed in CHO-K1 cells co-transfected with human Galpha16 assessed as intracellular calcium flux
T1 sequence (P34972 whole entry): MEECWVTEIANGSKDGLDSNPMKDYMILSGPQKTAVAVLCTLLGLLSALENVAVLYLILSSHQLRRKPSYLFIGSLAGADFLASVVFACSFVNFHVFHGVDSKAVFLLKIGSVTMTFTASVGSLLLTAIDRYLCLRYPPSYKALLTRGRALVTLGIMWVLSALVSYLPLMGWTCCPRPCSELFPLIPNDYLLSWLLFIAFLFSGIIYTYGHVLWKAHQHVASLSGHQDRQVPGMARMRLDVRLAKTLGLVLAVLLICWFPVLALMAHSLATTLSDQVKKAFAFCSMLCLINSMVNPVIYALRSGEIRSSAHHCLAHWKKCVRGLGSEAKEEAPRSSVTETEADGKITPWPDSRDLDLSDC

Cannabinoid receptor 2 [2] = target: T1, Cannabinoid receptor 2; assay: Agonist activity at human CB2 receptor expressed in CHO-K1 cells co-transfected with human Galpha16 assessed as intracellular calcium flux
Cannabinoid receptor 2 [3] = target: T1, Cannabinoid receptor 2; assay: Agonist activity at human CB2 receptor expressed in CHO-K1 cells co-transfected with human Galpha16 assessed as intracellular calcium flux at 10 uM relative to control; conditions: filed as agonist
Cannabinoid receptor 1 [4] = target: T2, Cannabinoid receptor 1 (Homo sapiens, UniProt P21554); assay: Agonist activity at human CB1 receptor expressed in CHO-K1 cells co-transfected with human Galpha16 assessed as intracellular calcium flux
T2 sequence (P21554 whole entry): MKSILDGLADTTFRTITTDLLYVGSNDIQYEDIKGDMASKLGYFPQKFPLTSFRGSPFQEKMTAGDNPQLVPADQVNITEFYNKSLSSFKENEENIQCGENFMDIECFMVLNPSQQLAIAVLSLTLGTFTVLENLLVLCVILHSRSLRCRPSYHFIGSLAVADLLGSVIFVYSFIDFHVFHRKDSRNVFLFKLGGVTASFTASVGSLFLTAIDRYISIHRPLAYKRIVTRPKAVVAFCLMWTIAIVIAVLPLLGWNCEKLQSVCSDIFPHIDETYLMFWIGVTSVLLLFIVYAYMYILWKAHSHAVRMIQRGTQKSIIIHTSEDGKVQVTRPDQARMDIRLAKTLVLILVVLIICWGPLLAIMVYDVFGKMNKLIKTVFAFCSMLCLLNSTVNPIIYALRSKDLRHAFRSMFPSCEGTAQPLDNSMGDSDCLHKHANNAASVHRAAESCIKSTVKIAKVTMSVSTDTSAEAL

Cannabinoid receptor 1 [5] = target: T2, Cannabinoid receptor 1; assay: Agonist activity at human CB1 receptor expressed in CHO-K1 cells co-transfected with human Galpha16 assessed as intracellular calcium flux at 10 uM relative to control
Cannabinoid receptor 1 [6] = target: T2, Cannabinoid receptor 1; assay: Antagonist activity at human CB1 receptor expressed in CHO-K1 cells co-transfected with human Galpha16 assessed as intracellular calcium flux
Cannabinoid receptor 2 [7] = target: T1, Cannabinoid receptor 2; assay: Agonist activity at human CB2 receptor expressed in CHO-K1 cells co-transfected with human Galpha16 assessed as intracellular calcium flux at 10 uM
Cannabinoid receptor 2 [8] = target: T1, Cannabinoid receptor 2; assay: Partial agonist activity at human CB2 receptor expressed in CHO-K1 cells co-transfected with human Galpha16 assessed as intracellular calcium flux at 10 uM; conditions: filed as partial agonist
Cannabinoid receptor 2 [9] = target: T1, Cannabinoid receptor 2; assay: Antagonist activity at human CB2 receptor expressed in CHO cells co-transfected with human Galpha16 assessed as receptor desensitization by measuring reduction in calcium response at 10 uM; conditions: filed as antagonist
Cannabinoid receptor 2 [10] = target: T1, Cannabinoid receptor 2; assay: Antagonist activity at human CB2 receptor expressed in CHO cells co-transfected with human Galpha16 assessed as increase in intracellular calcium mobilization at 10 uM; conditions: filed as antagonist
Cannabinoid receptor 2 [11] = target: T1, Cannabinoid receptor 2; assay: Agonist activity at human CB2 receptor expressed in HEK293 cells assessed as forskolin-stimulated cAMP accumulation preincubated with compound for 10 mins followed by forskolin induction and measured after 2 hrs by HTRF analysis
Cannabinoid receptor 2 [12] = target: T1, Cannabinoid receptor 2; assay: Antagonist activity at human CB2 receptor expressed in CHO cells co-transfected with human Galpha16 assessed as increase in intracellular calcium mobilization at 10 uM preincubated with compound for 10 mins followed by HBSS buffer wash and re-treated with compound at same concentration; conditions: filed as antagonist
Cannabinoid receptor 2 [13] = target: T1, Cannabinoid receptor 2; assay: Agonist activity at human CB2 receptor expressed in CHO cells assessed as reduction in ERK1/2 phosphorylation at 10 uM by Western blot analysis
Cannabinoid receptor 2 [14] = target: T1, Cannabinoid receptor 2; assay: Partial agonist activity at human CB2 receptor expressed in CHO-K1 cells co-transfected with human Galpha16 assessed as intracellular calcium flux
Cannabinoid receptor 1 [15] = target: T2, Cannabinoid receptor 1; assay: Partial agonist activity at human CB1 receptor expressed in CHO-K1 cells co-transfected with human Galpha16 assessed as intracellular calcium flux
Cannabinoid receptor 2 [16] = target: T1, Cannabinoid receptor 2; assay: Partial agonist activity at human CB2 receptor expressed in CHO-K1 cells co-transfected with human Galpha16 assessed as intracellular calcium flux at 10 uM relative to control; conditions: filed as partial agonist
Cannabinoid receptor 1 [17] = target: T2, Cannabinoid receptor 1; assay: Partial agonist activity at human CB1 receptor expressed in CHO-K1 cells co-transfected with human Galpha16 assessed as intracellular calcium flux at 10 uM relative to control; conditions: filed as partial agonist

SMILES | IC50 (Cannabinoid receptor 2 [1]) | EC50 (Cannabinoid receptor 2 [2]) | Emax (Cannabinoid receptor 2 [3]) | EC50 (Cannabinoid receptor 1 [4]) | IC50 (Cannabinoid receptor 1 [6]) | also measured
COc1ccc(C(=O)c2c(C)n(CCN3CCOCC3)c3cc(I)ccc23)cc1 | 0.179 µM | > 100 µM |  |  |  | 
CCCCCn1nc(C(=O)NC(C)(C)CO)cc1-c1cccn1CC | > 100 µM | 0.0077 µM | 76% | 0.0375 µM | > 100 µM | Emax (Cannabinoid receptor 1 [5]; filed as agonist): 90%
CCCCCn1nc(C(=O)NC(C)(C)CO)cc1-c1cc(C)cs1 | 0.0685 µM | > 100 µM |  | > 100 µM | > 100 µM | 
CCCCCn1nc(-c2cccs2)cc1C(=O)NC(C)(C)CO |  | > 100 µM |  | > 100 µM | > 100 µM | 
CCCCCn1nc(C(=O)NC(C)(C)CO)cc1-c1cccn1C |  | 0.0479 µM | 90% | > 100 µM | > 100 µM | 
CCCCCn1nc(C(=O)NC(C)(C)CO)cc1-c1ccc(C)s1 | 0.0282 µM | > 100 µM |  | > 100 µM | > 100 µM | 
CCCCn1nc(C(=O)NC(C)(C)CO)cc1-c1cccn1C(C)C | > 100 µM | > 100 µM |  | > 100 µM | > 100 µM | Activity (Cannabinoid receptor 2 [7]): inactive; Activity (Cannabinoid receptor 2 [8]): Weak_effect
CC(C)(CO)NC(=O)c1cc(-c2cccs2)n(-c2ccc(Cl)cc2)n1 | > 100 µM | 0.788 µM | 82% | > 100 µM | > 100 µM | Activity (Cannabinoid receptor 2 [8]): Weak_effect
CCCCCCC(C)(C)c1ccc([C@@H]2C[C@H](C)CC[C@H]2CCCO)c(O)c1 | > 100 µM | 0.035 µM | 100% |  |  | Activity (Cannabinoid receptor 2 [9]): Active; Activity (Cannabinoid receptor 2 [10]): Active; EC50 (Cannabinoid receptor 2 [11]): 0.0163 µM; Activity (Cannabinoid receptor 2 [12]): Active; Emax (Cannabinoid receptor 1 [5]; filed as agonist): 100%; Activity (Cannabinoid receptor 2 [13]): inactive
CCCCn1nc(C(=O)NC(C)(C)CO)cc1-c1ccn(C)c1 | > 100 µM | > 100 µM |  | > 100 µM | > 100 µM | Activity (Cannabinoid receptor 2 [7]): inactive
CCCCCn1nc(C(=O)NC(C)(C)CO)cc1-c1sccc1C | > 100 µM | 0.274 µM | 85% | 0.424 µM | > 100 µM | Emax (Cannabinoid receptor 1 [5]): 30%
CC(C)(CO)NC(=O)c1cc(-c2cccs2)n(-c2ccc(F)cc2)n1 | > 100 µM | 0.852 µM | 48% | > 100 µM | > 100 µM | Activity (Cannabinoid receptor 2 [8]): Weak_effect
CCCCCn1nc(-c2ccco2)cc1C(=O)NC(C)(C)CO |  | > 100 µM |  | > 100 µM | > 100 µM | 
CC(C)(CO)NC(=O)c1cc(-c2cccs2)n(CC2CC2)n1 | > 100 µM | 0.174 µM | 55% | > 100 µM | > 100 µM | Activity (Cannabinoid receptor 2 [7]; filed as agonist): Active
CCCCCn1nc(C(=O)NC(C)(C)CO)cc1-c1ccnn1C | > 100 µM | > 100 µM |  | > 100 µM | > 100 µM | 
CCCCCn1nc(C(=O)NC(C)(C)CO)cc1-c1ccco1 |  |  |  |  | > 100 µM | EC50 (Cannabinoid receptor 2 [14]): 0.056 µM; EC50 (Cannabinoid receptor 1 [15]): 0.957 µM; Emax (Cannabinoid receptor 2 [16]): 50%; Emax (Cannabinoid receptor 1 [17]): 80%
